Source: the supplement of paper PMC11451515

Test system: NOMO1
Test: cell viability relative to DMSO control; higher = less cytotoxic
Conditions: 48 h
In short: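 Library compounds in DMSO were pin-dosed in an 11-point threefold series (47 μM to 0.79 nM) onto leukemia cells in 1536-well plates (5 μl). Plates held 500 cells/well of NOMO1 or SEM or 1000 cells/well of P12-Ichikawa, each adapted for at least four passages in each medium. Luminescence was read with CellTiter-Glo One after 48 h at 37°C. Viability means the per-plate percentage relative to DMSO wells, using cell-free wells as background.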

[1] = HPLM + 10% dialyzed FBS, 0.000781 µM
[2] = HPLM + 10% dialyzed FBS, 0.00234 µM
[3] = HPLM + 10% dialyzed FBS, 0.00702 µM
[4] = HPLM + 10% dialyzed FBS, 0.0211 µM
[5] = HPLM + 10% dialyzed FBS, 0.0632 µM
[6] = HPLM + 10% dialyzed FBS, 0.19 µM
[7] = HPLM + 10% dialyzed FBS, 0.569 µM
[8] = HPLM + 10% dialyzed FBS, 1.71 µM
[9] = HPLM + 10% dialyzed FBS, 5.12 µM
[10] = HPLM + 10% dialyzed FBS, 15.4 µM
[11] = HPLM + 10% dialyzed FBS, 46.1 µM
[12] = RPMI 5 mM glucose + 10% FBS, 0.000781 µM
[13] = RPMI 5 mM glucose + 10% FBS, 0.00234 µM
[14] = RPMI 5 mM glucose + 10% FBS, 0.00702 µM
[15] = RPMI 5 mM glucose + 10% FBS, 0.0211 µM
[16] = RPMI 5 mM glucose + 10% FBS, 0.0632 µM
[17] = RPMI 5 mM glucose + 10% FBS, 0.19 µM
[18] = RPMI 5 mM glucose + 10% FBS, 0.569 µM
[19] = RPMI 5 mM glucose + 10% FBS, 1.71 µM
[20] = RPMI 5 mM glucose + 10% FBS, 5.12 µM
[21] = RPMI 5 mM glucose + 10% FBS, 15.4 µM
[22] = RPMI 5 mM glucose + 10% FBS, 46.1 µM
[23] = RPMI 5 mM glucose + 10% dialyzed FBS, 0.000781 µM
[24] = RPMI 5 mM glucose + 10% dialyzed FBS, 0.00234 µM
[25] = RPMI 5 mM glucose + 10% dialyzed FBS, 0.00702 µM
[26] = RPMI 5 mM glucose + 10% dialyzed FBS, 0.0211 µM
[27] = RPMI 5 mM glucose + 10% dialyzed FBS, 0.0632 µM
[28] = RPMI 5 mM glucose + 10% dialyzed FBS, 0.19 µM
[29] = RPMI 5 mM glucose + 10% dialyzed FBS, 0.569 µM
[30] = RPMI 5 mM glucose + 10% dialyzed FBS, 1.71 µM
[31] = RPMI 5 mM glucose + 10% dialyzed FBS, 5.12 µM
[32] = RPMI 5 mM glucose + 10% dialyzed FBS, 15.4 µM
[33] = RPMI 5 mM glucose + 10% dialyzed FBS, 46.1 µM

Compound	cell viability [1] [%]	cell viability [2] [%]	cell viability [3] [%]	cell viability [4] [%]	cell viability [5] [%]	cell viability [6] [%]	cell viability [7] [%]	cell viability [8] [%]	cell viability [9] [%]	cell viability [10] [%]	cell viability [11] [%]	cell viability [12] [%]	cell viability [13] [%]	cell viability [14] [%]	cell viability [15] [%]	cell viability [16] [%]	cell viability [17] [%]	cell viability [18] [%]	cell viability [19] [%]	cell viability [20] [%]	cell viability [21] [%]	cell viability [22] [%]	cell viability [23] [%]	cell viability [24] [%]	cell viability [25] [%]	cell viability [26] [%]	cell viability [27] [%]	cell viability [28] [%]	cell viability [29] [%]	cell viability [30] [%]	cell viability [31] [%]	cell viability [32] [%]	cell viability [33] [%]
COC1=C2OC(=O)\C=C/C2=CC3=C1OC=C3	117	116	120	116	116	123	107	118	109	101	116	108	115	115	117	121	113	96.5	104	108	105	97.3	104	109	115	117	114	113	113	108	104	101	107
CC(C)(C)c1[nH]cnc1/C=c1\[nH]c(=O)/c(=C/c2ccccc2)[nH]c1=O	101	76.7	31	46	52.7	37.5	42.1	32.5	20.3	22.1	5.6	128	109	24.3	24.5	28.9	23.9	24.9	17.4	18.4	14.6	6.53	103	105	24.9	26.2	29.5	27.8	30.6	20.8	23.2	16.5	3.92
FC1=CC=C(SC/2=N/N3\C=N/C(=O)/C(=C3/C=C2)C4=C(Cl)C=CC=C4Cl)C(=C1)F	99	108	108	114	112	118	119	107	101	99.2	50.2	98.8	93.2	104	118	104	115	98.3	105	95.3	104	43.7	98.7	114	105	103	101	106	108	110	108	99	72.5
Cc1cnc(NC(=O)Nc2cc(Br)c(C)cc2OC[C@@H]2CNCCO2)cn1	122	130	107	127	130	120	95.1	69.5	30.9	35.5	26.6	108	120	107	107	119	117	101	99	51	94.2	22.5	111	106	109	116	121	108	110	68.1	23.1	32.8	17.9
FC(F)c1nc2ccccc2n1-c1nc(N2CCOCC2)nc(N2CCOCC2)n1	104	93.8	92	60.1	65.3	42.6	43.9	36.3	41.5	27.7	30.6	85.4	92.2	87.9	94.5	78	67.8	52.6	62.8	45.7	60.2	31.2	86.5	102	97.1	97.5	76.5	71	54.7	52.9	50.2	43.9	34.4
COc1cc2nccc(Oc3ccc(NC(=O)NC4CC4)c(Cl)c3)c2cc1C(N)=O	129	120	111	98.7	145	100	114	113	111	78.1	17.2																						
C/C=C1\C2C=C(C)CC1(N)c1ccc(=O)[nH]c1C2 (stereo not given)	107	117	113	114	109	104	117	106	110	95.1	79.4	94.6	96.4	99.2	115	96.3	93.7	102	105	102	91	90.8	90.4	103	96.7	103	108	96.1	94.1	99.9	95	98.8	81
COc1cc2c(cc1OC)CC(=O)N(CCCN(C)C[C@H]1Cc3cc(OC)c(OC)cc31)CC2.Cl	126	115	107	122	97.1	111	122	112	114	115	109	104	105	99.2	106	100	102	102	99.6	105	97.5	95.3	111	114	130	115	113	106	92.6	110	110	93	100
O=C(Nc1ccccc1-c1cn2c(CN3CCNCC3)csc2n1)c1cnc2ccccc2n1	91.8	83	71.9	77.7	82.6	92	81.9	66.6	79.3	74.2	76.3	76.6	80.6	82.9	85.1	79.7	85.3	70.3	68.1	77.1	65.6	0.639	86.3	84.6	96	90.5	80	80.2	74.2	86.8	79.4	69	75.1
CN(NC(=O)CC(=O)NN(C)C(=S)c1ccccc1)C(=S)c1ccccc1	85.2	101	91.7	111	52.3	21.7	3.16	4.21	4.19	4.38	6.98	86	80.2	97.5	95.2	53.4	16.7	3.21	3.39	4.47	6.75	15.8	83.4	89.2	82.1	94.6	39	10.7	2.4	2.7	3.68	2.79	9.44
Cc1[nH]c2ccccc2c1CCNCc1ccc(/C=C/C(=O)NO)cc1	102	108	126	99.9	137	103	61.8	14.2	9	8.41	8.11	111	118	108	106	110	102	82.9	10.9	7.29	7.8	7.5	106	122	116	99.5	122	110	84.4	13	8.52	9.32	7.81
CC[C@H](C)[N]1C=C(C)C2=C1C=C(C=C2C(=O)NC\C3=C(C)\C=C(\C)NC3=O)C4=CC=C(N=C4)N5CCNCC5	112	108	125	131	130	129	124	104	127	122	82.3	105	108	121	123	122	115	126	115	128	113	102	116	125	124	127	128	123	137	138	148	118	96.4
Cn1cnc2c1c(=O)[nH]c(=O)n2C	112	102	102	119	108	110	116	96.4	105	78.3	5.56	99.2	110	96.2	92.6	97	96.5	103	88.1	99.3	91.6	7.98	101	91.7	99	114	109	104	100	102	96	90	9.87
O=C(Nc1cc2cc[nH]c2cn1)c1ccccc1	97.5	116	94.4	122	108	102	123	103	21	4.39	0.639	95.6	101	97.2	110	100	108	99.4	88.4	54.6	18.9	2.79	96.6	104	102	98.5	103	105	105	94	59.1	45.9	7.31
